Series [1] has as its system Diabrotica Balteata (Corn Root Worm). In words: Example B7: activity against Diabrotica balteata, sprayed maize sprouts. The series is classed as in vivo. As to conditions: 96 h, application rate 200 ppm, L2 larvae, 4 days after infestation, read-out: effect in at least one of the two categories (mortality or growth inhibition). On the procedure:
Maize sprouts placed onto an agar layer in 24-well microtiter plates were treated with aqueous test solutions prepared from 10'000 ppm DMSO stock solutions by spraying. After drying, the plates were infested with L2 larvae (6 to 10 per well). The samples were assessed for mortality and growth inhibition in comparison to untreated samples 4 days after infestation.

For series [2], the system named is Euschistus heros (Neotropical Brown Stink Bug). In words: Example B6: activity against Euschistus heros, sprayed soybean leaf. In kind it is in vivo. As to conditions: 120 h, application rate 200 ppm, N-2 nymphs, 5 days after infestation, read-out: effect in at least one of the two categories (mortality or growth inhibition). As to the method:
Soybean leaf on agar in 24-well microtiter plates were sprayed with aqueous test solutions prepared from 10'000 ppm DMSO stock solutions. After drying the leaf were infested with N-2 nymphs. The samples were assessed for mortality and growth inhibition in comparison to untreated samples 5 days after infestation.

Series [3] concerns Spodoptera littoralis (Egyptian Cotton Leaf Worm). As to the kind of experiment: Example B7: activity against Spodoptera littoralis, sprayed cotton leaf discs. The series is classed as in vivo. As to conditions: foliar, 72 h, application rate 200 ppm, L1 larvae, 3 days after infestation. On the procedure: Cotton leaf discs were placed onto agar in 24-well microtiter plates and sprayed with aqueous test solutions prepared from 10'000 ppm DMSO stock solutions. After drying the leaf discs were infested with five L1 larvae. The samples were assessed for mortality, anti-feeding effect, and growth inhibition in comparison to untreated samples 3 days after infestation. Control of Spodoptera littoralis by a test sample is given when at least one of the categories mortality, anti-feedant effect, and growth inhibition is higher than the untreated sample.

The test system of series [4] is Bemisia tabaci (Cotton White Fly). In words: Example B5: activity against Bemisia tabaci, sprayed cotton leaf discs. As to conditions: foliar, 144 h, application rate 200 ppm, adult white flies, 6 days after incubation. In kind it is in vivo. As to the method:
Cotton leaf discs were placed on agar in 24-well microtiter plates and sprayed with aqueous test solutions prepared from 10'000 ppm DMSO stock solutions. After drying the leaf discs were infested with adult white flies. The samples were checked for mortality 6 days after incubation.

Series [5] concerns Frankliniella occidentalis (Western Flower Thrips). In words: Example B4: activity against Frankliniella occidentalis, sprayed sunflower leaf discs. The settings on record: foliar, 168 h, application rate 200 ppm, population of mixed ages, 7 days after infestation. The series is classed as in vivo. As to the method: Sunflower leaf discs were placed on agar in 24-well microtiter plates and sprayed with aqueous test solutions prepared from 10'000 DMSO stock solutions. After drying the leaf discs were infested with a Frankliniella population of mixed ages. The samples were assessed for mortality 7 days after infestation.

Series [6] relates to Plutella xylostella (Diamond Back Moth). As to the kind of experiment: Example B1: activity against Plutella xylostella, artificial diet in 24-well plates. The series is classed as in vivo. As to conditions: 120 h, application rate 200 ppm, L2 larvae on artificial diet, 5 days after infestation, read-out: effect in at least one of the two categories (mortality or growth inhibition). On the procedure: 24-well microtiter plates with artificial diet were treated with aqueous test solutions prepared from 10'000 ppm DMSO stock solutions by pipetting. After drying, the plates were infested with L2 larvae (10 to 15 per well). The samples were assessed for mortality and growth inhibition in comparison to untreated samples 5 days after infestation.

The test system of series [7] is Myzus persicae (Green Peach Aphid). As to the kind of experiment: Example B2: activity against Myzus persicae, sprayed sunflower leaf discs. The series is classed as in vivo. As to conditions: foliar, 144 h, application rate 200 ppm, aphid population of mixed ages, 6 days after infestation. On the procedure: Sunflower leaf discs were placed on agar in a 24-well microtiter plate and sprayed with aqueous test solutions prepared from 10'000 ppm DMSO stock solutions. After drying, the leaf discs were infested with an aphid population of mixed ages. The samples were assessed for mortality 6 days after infestation.

Series [8] concerns Tetranychus urticae (Two-Spotted Spider Mite). As to the kind of experiment: Example B7: activity against Tetranychus urticae, sprayed bean leaf discs. The settings on record: foliar, 192 h, application rate 200 ppm, mixed population (mobile stages), 8 days after infestation. The series is classed as in vivo. As to the method:
Bean leaf discs on agar in 24-well microtiter plates were sprayed with aqueous test solutions prepared from 10'000 ppm DMSO stock solutions. After drying the leaf discs were infested with a mite population of mixed ages. The samples were assessed for mortality on mixed population (mobile stages) 8 days after infestation.

For series [9], the system named is Spodoptera littoralis (Egyptian Cotton Leaf Worm). In words: Example B7: activity against Spodoptera littoralis, compound in agar taken up by lettuce roots. As to conditions: 144 h, test rate 12.5 ppm, systemic via lettuce roots, Spodoptera eggs, 6 days after infestation, read-out: effect in at least one of the three categories (mortality, anti-feeding, or growth inhibition). The series is classed as in vivo. The text has this:
Test compounds were applied by pipette from 10'000 ppm DMSO stock solutions into 24-well plates and mixed with agar. Lettuce seeds were placed onto the agar and the multi well plate was closed by another plate which contained also agar. After 7 days the compound was absorbed by the roots and the lettuce grew into the lid plate. The lettuce leaves were then cut off into the lid plate. Spodoptera eggs were pipetted through a plastic stencil onto a humid gel blotting paper and the lid plate was closed with it. The samples were assessed for mortality, anti-feedant effect and growth inhibition in comparison to untreated samples 6 days after infestation.

The test system of series [10] is Myzus persicae (Green Peach Aphid). As to the kind of experiment: Example B3: activity against Myzus persicae, roots of pea seedlings in test solution. In kind it is in vivo. As to conditions: 144 h, test rate 24 ppm, roots of infested pea seedlings in test solution, 6 days. On the procedure: Roots of pea seedlings infested with an aphid population of mixed ages were placed directly in the aqueous test solutions prepared from 10'000 DMSO stock solutions. The samples were assessed for mortality 6 days after placing seedlings in test solutions.

Series [11] deals with Thrips tabaci (Onion Thrips). In words: Example B7: activity against Thrips tabaci, sprayed sunflower leaf discs. The series is classed as in vivo. The settings on record: foliar, 144 h, application rate 200 ppm, population of mixed ages, 6 days after infestation. On the procedure:
Sunflower leaf discs were placed on agar in 24-well microtiter plates and sprayed with aqueous test solutions prepared from 10'000 ppm DMSO stock solutions. After drying the leaf discs were infested with a Thrips population of mixed ages. The samples were assessed for mortality 6 days after infestation.

The source of these data is patent US10961248B2, “Pesticidally active heterocyclic derivatives with sulfur containing substituents” (SYNGENTA PARTICIPATIONS AG, priority 2016, dated 2021).

`CCS(=O)(=O)c1cc(N=S(C)(=O)C2CC2)cnc1-c1nc2cc(C(F)(F)F)ncc2n1C` (stereo not shown) [P3, cyclopropyl-[[5-ethylsulfonyl-6-[3-methyl-6-(trifluoromethyl)imidazo[4,5-c]pyridin-2-yl]-3-pyridyl]imino]-methyl-oxo-λ^6-sulfane]: the percent effect (mortality or growth inhibition) at 200 ppm in [1], in series [2] and in series [6] was not below 80% throughout. The same compound displayed a percent control (mortality, anti-feedant effect or growth inhibition) at 200 ppm in series [3] not below 80%. The mortality at 200 ppm in [4], in series [5], in [7] and in series [8] was not below 80% throughout. Moreover, in [9], the percent effect (mortality, anti-feeding or growth inhibition) at 12.5 ppm was not below 80%.

`CCS(=O)(=O)c1cc(N=S(=O)(CC)CC)cnc1-c1nc2cc(C(F)(F)F)ncc2n1C` [P4, diethyl-[[5-ethylsulfonyl-6-[3-methyl-6-(trifluoromethyl)imidazo[4,5-c]pyridin-2-yl]-3-pyridyl]imino]-oxo-λ^6-sulfane]: the percent effect (mortality or growth inhibition) at 200 ppm in [1], in series [2] and in series [6] was not below 80% in each case. Further, in series [3], the percent control (mortality, anti-feedant effect or growth inhibition) at 200 ppm is not below 80%. Further, the mortality at 200 ppm in [4], in series [7] and in series [8] was not below 80% throughout.

Take `CCS(=O)(=O)c1cc(N=S(C)(=O)C2CC2)cnc1-c1nc2cc(C(F)(F)F)nnc2n1C` (stereo not shown) [P7, cyclopropyl-[[5-ethylsulfonyl-6-[7-methyl-3-(trifluoromethyl)imidazo[4,5-c]pyridazin-6-yl]-3-pyridyl]imino]-methyl-oxo-λ^6-sulfane]: the percent effect (mortality or growth inhibition) at 200 ppm in series [1], in series [2] and in [6] was not below 80% in each case. For the same compound, the mortality at 24 ppm in [10] is not below 80%. This compound came in with a percent control (mortality, anti-feedant effect or growth inhibition) at 200 ppm in [3] not below 80%. The mortality at 200 ppm in series [4], in [5], in [7] and in series [8] was not below 80% throughout. Also, in [9], the percent effect (mortality, anti-feeding or growth inhibition) at 12.5 ppm is not below 80%.

`CCS(=O)(=O)c1cc(N=S(C)(C)=O)cnc1-c1nc2cc(C(F)(F)F)nnc2n1C` [P9, [5-ethylsulfonyl-6-[7-methyl-3-(trifluoromethyl)imidazo[4,5-c]pyridazin-6-yl]-3-pyridyl]imidno-dimethyl-oxo-λ^6-sulfane]: the percent effect (mortality or growth inhibition) at 200 ppm in series [1], in series [2] and in series [6] was not below 80% each time. Besides, the mortality at 24 ppm in series [10] was not below 80%. Also, the percent control (mortality, anti-feedant effect or growth inhibition) at 200 ppm in [3] is not below 80%. Further, the mortality at 200 ppm in series [4], in series [5], in [7] and in series [11] was not below 80% each time.

Consider `CCS(=O)(=O)c1cc(N=S(C)(=O)c2ccc(C)cc2)cnc1-c1cn2cnc(C(F)(F)F)cc2n1` (stereo not shown) [P10, [5-ethylsulfonyl-6-[7-(trifluoromethyl)imidazo[1,2-c]pyrimidin-2-yl]-3-pyridyl]imino-methyl-oxo-(p-tolyl)-λ^6-sulfane], for which the melting point lay in the range of 155 to 157 °C.

On to `CCS(=O)(=O)c1cc(N=S2(=O)CCC2)cnc1-c1nc2cc(C(F)(F)F)ncc2n1C` [P11, 1-[[5-ethylsulfonyl-6-[3-methyl-6-(trifluoromethyl)imidazo[4,5-c]pyridin-2-yl]-3-pyridyl]imino]thietane 1-oxide], for which the percent effect (mortality or growth inhibition) at 200 ppm in series [1], in series [2] and in series [6] was not below 80% each time. In series [10], this compound registered a mortality at 24 ppm not below 80%. In series [3], this compound had a percent control (mortality, anti-feedant effect or growth inhibition) at 200 ppm not below 80%. The mortality at 200 ppm in series [4], in series [5], in [7] and in series [8] was not below 80% each time.

`CCS(=O)(=O)c1cc(N=S(C)(C)=O)cnc1-n1cc2cnc(C(F)(F)F)cc2n1` [P16, [5-ethylsulfonyl-6-[6-(trifluoromethyl)pyrazolo[4,3-c]pyridin-2-yl]-3-pyridyl]imino-dimethyl-oxo-λ^6-sulfane]: the percent effect (mortality or growth inhibition) at 200 ppm in series [1], in [2] and in [6] was not below 80% in each case. Besides, in [10], the mortality at 24 ppm was not below 80%. In addition, the percent control (mortality, anti-feedant effect or growth inhibition) at 200 ppm in series [3] is not below 80%. In addition, the mortality at 200 ppm in series [4], in [5] and in series [7] was not below 80% each time.

Take `CCS(=O)(=O)c1cc(N=S2(=O)CCOCC2)cnc1-c1nc2cc(C(F)(F)F)nnc2n1C` [P23, 4-[[5-ethylsulfonyl-6-[7-methyl-3-(trifluoromethyl)imidao[4,5-c]pyridazin-6-yl]-3-pyridyl]imino]-1,4-oxathiane 4-oxide]: the percent effect (mortality or growth inhibition) at 200 ppm in series [2] and in series [6] was not below 80% each time. Besides, in [10], the mortality at 24 ppm is not below 80%. The mortality at 200 ppm in series [4], in series [7] and in [8] was not below 80% in each case.

In the case of `CCS(=O)(=O)c1cc(N=S2(=O)CCOCC2)ccc1-c1nc2cc(C(F)(F)F)nnc2n1C` [P25, 4-[3-ethylsulfonyl-4-[7-methyl-3-(trifluoromethyl)imidazo[4,5-c]pyridazin-6-yl]phenyl]imino-1,4-oxathiane 4-oxide], the melting point was 253 to 255 °C.

As to `CCS(=O)(=O)c1cc(N=S2CCOCC2)cnc1-c1nc2cc(C(F)(F)F)ncc2n1C` [P26, 2-[3-ethylsulfonyl-5-(1,4-oxathian-4-ylideneamino)-2-pyridyl]-3-methyl-6-(trifluoromethyl)imidazo[4,5-c]pyridine], the melting point was 214 °C (dec.).

A word on the mortality: it is the percentage killed. Usually melting point stands for the temperature, or range, at which the solid turns liquid.
